Test results: paper PMC4414144, “Plasmin releases the anti-tumor peptide from the NC1 domain of collagen XIX” (Oncotarget, 2015)
Entries after “also recorded” stand apart in the source; their conditions may differ.

Tests used:
[1] = target: T1, plasmin (Homo sapiens, UniProt P00747); assay: Kinetic analysis of P36 peptide cleavage by plasmin (KM, Kcat); format: biochemical; details: P36 8, 16, 32, 64 nM; 1.25 nM plasmin; 30 min, 37°C; HPLC; double-reciprocal plot
T1 construct: purchased Merck, Darmstadt
T1 sequence (P00747 97-580 partner limits assumed, species assumed): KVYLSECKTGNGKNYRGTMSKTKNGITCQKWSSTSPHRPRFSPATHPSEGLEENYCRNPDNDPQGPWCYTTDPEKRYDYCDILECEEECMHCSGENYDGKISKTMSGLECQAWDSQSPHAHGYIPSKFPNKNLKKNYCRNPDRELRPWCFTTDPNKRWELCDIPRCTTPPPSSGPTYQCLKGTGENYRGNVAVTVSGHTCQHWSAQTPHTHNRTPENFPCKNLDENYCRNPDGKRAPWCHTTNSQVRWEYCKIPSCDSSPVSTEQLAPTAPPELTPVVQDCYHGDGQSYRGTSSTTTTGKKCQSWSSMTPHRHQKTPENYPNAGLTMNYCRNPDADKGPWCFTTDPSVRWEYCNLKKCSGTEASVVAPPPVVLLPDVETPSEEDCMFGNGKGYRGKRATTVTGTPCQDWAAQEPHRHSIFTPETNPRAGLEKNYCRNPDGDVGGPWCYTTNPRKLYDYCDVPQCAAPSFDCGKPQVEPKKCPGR
T1 sequence (P00747 581-810 limits assumed, species assumed): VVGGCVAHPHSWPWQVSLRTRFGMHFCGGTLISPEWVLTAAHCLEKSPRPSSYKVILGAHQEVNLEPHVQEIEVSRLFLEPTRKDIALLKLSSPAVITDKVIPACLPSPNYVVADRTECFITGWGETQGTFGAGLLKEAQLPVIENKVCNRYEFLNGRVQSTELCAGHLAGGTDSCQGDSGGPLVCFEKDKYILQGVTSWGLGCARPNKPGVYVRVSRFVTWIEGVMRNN
Procedure: Michaelis constant (KM) and first-order rate constant of substrate peptide turnover (Kcat) were obtained by digestion of P36 peptide (8, 16, 32, 64 nM), for 30 min at 37°C in the presence of 1.25 nM plasmin. Cleavage of the peptide was monitored by HPLC. From these measurements, Kcat and KM were calculated using double-reciprocal plot of 1/[S] versus 1/v.

[2] = tested on: MMP-9; assay: P36 peptide cleavage by MMP-9; format: biochemical; details: preliminary experiments, data not shown
[3] = tested on: plasmin; assay: P36 peptide digestion in SKMEL28 melanoma cell cultures; format: cell-based, human; details: MALDI-ToF MS
Procedure: (§1) Human melanoma cell line (SKMEL28) was purchased from the American Type Culture Collection (ATCC, Manassas, VA). Cells were grown in Dulbecco's Modified Eagle's medium (DMEM) supplemented with 10% Fetal Bovine Serum (FBS), 1% penicillin and streptomycin (PenStrep®, Gibco®, France) in Nunclon® 75 cm^2 flasks (Dutscher, Brumath, France) at 37°C in a humid atmosphere (5% CO2, 95% air). Murine melanoma B16F1 cells, were a generous gift of Dr. M. Grégoire (INSERM UMRS 419, Nantes, France). They were grown in RPMI 1640 medium supplemented with 5% FBS in Nunclon 25 cm^2 flasks at 37°C in a humid atmosphere (5% CO2, 95% air). All culture media and reagents were purchased from Life Technologies (Invitrogen, Strasbourg, France).
SKMEL28 were incubated in DMEM with 20 μL plasminogen (40 μg/mL) and/or 20 μL plasmin (10 μg/mL) and/or aprotinin (10^−5 M) and P36 peptide. Samples were analyzed using HPLC and Matrix Assisted Laser Desorption Ionisation – Time of flight protocol (MALDI-ToF) as described below.
siRNA specific to human tPA (FlexiTube GeneSolution for PLAT) was purchased from Qiagen (Courtaboeuf, France). The siRNA target different regions of the tPA mRNA: 1st siRNA target sequence (5′-[…]-3′), 2nd siRNA target sequence (5′-[…]-3′), 3rd siRNA target sequence (5′-[…]-3′) and 4th siRNA target sequence (5′-[…]-3′). Exponentially growing SKMEL28 cells were transfected with siRNA pools (20 nM) using lipofectamine™ 2000. Decrease of tPA mRNA expression was assessed by RT-qPCR at 48 h after transfection. Decrease of tPA protein expression was monitored by zymography and immunocytofluorescence 72 h after siRNA transfection. Cells were subjected to plasminogen treatment for P36 peptide cleavage 24 h after transfection.

[4] = tested on: MT1-MMP; assay: P36 peptide cleavage by MT1-MMP; format: biochemical; details: preliminary experiments, data not shown
[5] = target: T1, plasmin; assay: P36 peptide digestion in vitro by plasmin (HPLC, MALDI-ToF MS); format: biochemical; details: for Effect on P36 peptide plasmin digestion: 16 h, E:S 1:50, HPLC
Procedure: Lyophilized plasmin with a specific activity of 10 U/mg (Merck, Darmstadt, Allemagne) was dissolved in sterile water to a concentration of 1 mg/mL. In control sample, P36 peptide (6.79 × 10^−4 M) was incubated overnight at 37°C in a Tris-HCl buffer (150 mM NaCl, 5 mM CaCl2, 50 mM Tris-HCl, pH 7.5). […] Aliquots were analyzed by HPLC as described below.
Dose-dependent digestion of P36 peptide by plasmin was measured by incubating P36 peptide 16 h at 37°C with different plasmin concentrations. Time-dependent analysis of P36 peptide cleavage by plasmin was obtained by incubating P36 with plasmin (E:S 1:50 at 37°C) during different time. Cleavage of the peptide was monitored by HPLC using method 1.
HPLC samples (20 μL of each sample with 30 μL of 0.1% trifluoroacetic acid) were injected on a Waters Alliance 2695 HPLC system, equipped with a photodiode array 2996 PDA detector, fraction collector III (WFC III) and the Empower^TM chromatography software for data acquisition (Milford, MA, USA). The column used was a EC 250/4 Nucleosil reversed phase (5 μm particle size, 100 Å pore size, 4 × 250 mm) which was protected by a guard column CC 8/4 Nucleosil 300-5 C4 (Macherey-Nagel, Düren, Germany). The injection volume was 20 μL and detection was performed at λ = 214 nm. Eluants were 0.1% trifluoroacetic acid in water (A) and 0.1% trifluoroacetic acid in 80% acetonitrile (B). The analyses followed a linear gradient program with a flow at 0.8 mL/min. Two method conditions were used:
(§2) Solutions of matrix α–cyano-4-hydroxycinnamic acid (CHCA) was prepared as a saturated solution in ACN/water (1/1; v/v) containing 0.1% TFA (10 mg/mL). Samples were prepared at a concentration of 10 pmol/μL in water containing 0.1% TFA. Typically, 1 μL of the matrix was pipetted on the MALDI target plate. Then 1 μL of analyte was added and air-dried for MALDI-ToF MS analysis.
(§3) MS experiments were performed using micromass MALDITM–LR time-of-flight mass spectrometer (Waters MS technologies, Manchester, UK) equipped with a nitrogen UV laser (337 nm wavelength), reflectron optics, a fast dual micro-channel plate (MCP) detector and a high magnification camera system. Positive ion spectra were acquired in reflectron mode. The following voltages were applied: pulse 1940 V, MCP 2380 V, suppression 500, flight tube 12000 V, reflectron 5200 V. A time lag focusing (TLF) delay of 680 ns was used between the time of laser pulse and the application of the accelerating voltage. Samples were analyzed in reflectron acquisition mode in the mass range 550-4000 Da. Mass calibration was performed using a peptide mixture composed of Bradykinin fragment 1–5 (573.31 Da), human Angiotensin II (1046.54 Da), Neurotensin (1672.92 Da), ACTH clip (2465.20 Da), bovine Insulin ß-chain oxidized (3494.65 Da) and bovine Insulin (5730.61 Da).

[6] = tested on: MMP-1; assay: P36 peptide cleavage by MMP-1; format: biochemical; details: preliminary experiments, data not shown
[7] = tested on: MMP-2; assay: P36 peptide cleavage by MMP-2; format: biochemical; details: preliminary experiments, data not shown
[8] = Intra-chain disulfide bond formation in solution; format: physicochemical; details: for Time for spontaneous intra-chain disulfide bond formation (C^1123-C^1128): in solution; for Intra-chain disulfide bond formation Cys^1123-Cys^1128: in solution over the time, MALDI-ToF MS
Procedure: as §2, §3

[9] = tested on: SKMEL28 cells; assay: Scratch wound assay; format: cell-based, human; details: F4 200 μg/mL, p < 0.05 vs control, five experiments
Procedure: as §1
SKMEL28 cells (5 × 10^4 per well) were seeded in 24-well plates and cultivated to confluence in DMEM supplemented with 5% FBS. The cell layer was then wounded with a sterile 100 to 1000 μL pipet tip and re-incubated in fresh culture medium in the absence or presence of F4 peptide. After 24 h, 48 h or 72 h, cells were photographed and the size of the remaining wound measured.

[10] = tested on: B16F1 cells; assay: In vivo murine melanoma model, tumor growth; parameters: species or system mouse (murine B16F1 melanoma in C57Bl6 mice); details: day 15; B16F1 cells pre-incubated 30 min with F4, s.c.; re-injected i.p. day 7 and 14; ten mice; p < 0.05 vs controls
Procedure: as §1
C57Bl6 mice (average body weight: 16–18 g) were purchased from Harlan France (Gannat, France). The in vivo experiments were conducted according to the ethical guidelines of the Centre National de la Recherche Scientifique (CNRS). In vivo melanoma model was previously described (Ramont et al., 2007). Briefly, 2.5 × 10^5 B16F1 cells, pre-incubated (30 min) with either control medium or F4 peptide, were subcutaneously injected into the left side of 10 syngenic C57BL6 mice. Treatments were re-injected intraperitoneally at day 7 and 14. Tumor size was measured regularly.

[11] = tested on: tumor cells; details: in vitro; ref [25]; cited from earlier work
Description: (§4) Type XIX collagen is one of the minor basement membrane-associated collagens. It was discovered in 1992, isolated from rhabdomyosarcoma cell lines and named collagen Y [16]. This discovery was completed in 1993 by Myers et al who gave it the name of RH collagen. It is a 400 kDa homotrimer, composed by the association of three α1(XIX) chains. Each chain comprises 1142 residues, including six non-collagenous domains (NC1-NC6) separated by five collagenous domains (Col1-Col5). This collagen presents high structural homology with other types of collagens IX, XII, XIV, X ...

[12] = tested on: tumor angiogenesis; details: in vitro and in vivo; ref [26]; cited from earlier work
Description: as §4

[13] = tested on: experimental murine melanoma; details: experimental murine melanoma model; ref [26]; cited from earlier work
Description: as §4

[14] = tested on: plasmin; assay: Plasmin activity measurement in SKMEL28 culture, chromogenic substrate S-2251; format: cell-based, human; details: SKMEL28 with plasminogen; S-2251 hydrolysis at 405 nm
Procedure: After washing with DPBS, cells were incubated in DMEM with/without 20 μL plasminogen (40 μg/mL) and/or 20 μL plasmin (10 μg/mL) and/or 20 μL plasmin chromogenic substrate (250 μg/mL). Hydrolysis of the S-2251 chromogenic substrate (Chromogenix, distributed by Hyphen Biomed, Neuville sur Oise, France) was measured at 405 nm at different time.

[15] = tested on: experimental cancer models; details: cited from earlier work
Description: The basement membrane is a complex structure mainly composed of laminins, nidogens, heparan sulfate proteoglycans (perlecan and/or agrin), and type IV collagen. More recently, associations between basement membrane and minor collagens such as type XVIII, XV or type XIX were reported and named basement membrane zone. These collagenous components associated with the basement membrane represent a dynamic interface between this structure and the stroma. Basement membrane has long been described as a simple architectural cell support. […] For instance, endostatin, the NC1 domain of type XVIII collagen, is released by many proteases such as MMP-3, 7, 9, 12, 13, 20 [14, 35, 36], or cathepsins B, L, S, V [37, 38, 39]. […] Tumstatin, the NC1 domain of type IV collagen is generated in vivo by MMP-9 [7]. It exerts anti-tumor and anti ...

[16] = SKMEL28, plasminogen + aprotinin (10^−5 M)
[17] = SKMEL28, plasminogen added (20 μL, 40 μg/mL)
[18] = E:S 1:50, 37°C, 0, 5, 30, 60 min, HPLC method 1

## (SPGAPGPQGPPGPSGRC) and the totality of the C-terminal NC1(XIX) domain (NPEDCLYPVSHAHQRTGGN) [P36, synthetic peptide composed of the last 36 residues of the human α1(XIX) chain]
[1]
  Kcat: 0.077 s⁻¹
[2]
  Cleavage of P36 by MMP-9: Neither MMP-1, MMP-2, MMP-9 nor MT1-MMP were capable to cleave the P36 peptide
[3]; SKMEL28, no added plasminogen
  Release of fragments / cleavage of P36 in cell culture: no cleavage of P36 peptide occurred
[3]; [16]
  Cleavage of P36 in cell culture in presence of aprotinin: no cleavage of P36 occurred
[3]; [17]
  Release of fragments / cleavage of P36 in cell culture: P36 peptide disappeared
[4]
  Cleavage of P36 by MT1-MMP: Neither MMP-1, MMP-2, MMP-9 nor MT1-MMP were capable to cleave the P36 peptide
[5]; [18]
  Dependence of digestion on time: time-dependent
  Time at which P36 peptide was cleaved by plasmin: ≤ 5 min
[5]; E:S 1:50, 16 h, 37°C, Tris-HCl pH 7.5, MALDI-ToF MS
  Plasmin cleavage site: Arg1138-Thr1139; also recorded: Arg1122-Cys1123
[5]; plasmin 1:50 to 1:400, overnight/16 h, 37°C, HPLC method 1
  Dependence of digestion on plasmin dose: dose-dependent
[6]
  Cleavage of P36 by MMP-1: Neither MMP-1, MMP-2, MMP-9 nor MT1-MMP were capable to cleave the P36 peptide
[7]
  Cleavage of P36 by MMP-2: Neither MMP-1, MMP-2, MMP-9 nor MT1-MMP were capable to cleave the P36 peptide
[8]
  Time for spontaneous intra-chain disulfide bond formation (C^1123-C^1128): less than 1 h
  Intra-chain disulfide bond formation Cys^1123-Cys^1128: formed an intra-chain disulfide-bond

## CNPEDCLYPVSHAHQR [F4]
[9]; 24 h
  Change in wound closure: −53%
[9]; 48 h
  Change in wound closure: −39%
[9]; 72 h
  Change in wound closure: −36%
[10]
  Change in tumor growth (tumor volume): −30%
[3]; SKMEL28, no added plasminogen
  Release of fragments / cleavage of P36 in cell culture: no release
[3]; [17]
  Release of fragments / cleavage of P36 in cell culture: released
[8]
  Time for spontaneous intra-chain disulfide bond formation (C^1123-C^1128): less than 1 h
  Intra-chain disulfide bond formation Cys^1123-Cys^1128: formed an intra-chain disulfide-bond

## NPEDCLYPVSHAHQRTGGN [NC1(XIX), C-terminal NC1(XIX) domain (…), 19 amino acids]
[11]
  Tumor cell migration and invasion: inhibited the migration and invasion capacities of tumor cells in vitro
[12]
  Tumor angiogenesis: inhibited tumor angiogenesis in vitro and in vivo
[13]
  Inhibition of in vivo tumor growth: strong inhibition

## SPGAPGPQGPPGPSGR [F2, … Col1 domain of P36 peptide]
[3]; SKMEL28, no added plasminogen
  Release of fragments / cleavage of P36 in cell culture: no release
[3]; [17]
  Release of fragments / cleavage of P36 in cell culture: released

## aprotinin [reference compound]
[3]; [16]
  Effect of aprotinin on release of F2, F3 and F4: abolished this release
[5]; aprotinin 10^−5 M, 37°C
  Effect on P36 peptide plasmin digestion: completely abolished
[5]; aprotinin 10^−6 M, 37°C
  Effect on P36 peptide plasmin digestion: completely abolished
[5]; aprotinin 10^−7 M, 37°C
  Effect on P36 peptide plasmin digestion: not sufficient to prevent it
[14]
  Inhibition of plasmin activity: completely inhibited plasmin activity

## endostatin
[15]; number of experimental cancer models, ref [7], [43]
  Anti-tumor properties: exerts significant anti-tumor properties
[15]; ref [38]
  Metastatic potential of cells: reduces metastatic potential of cells
